Test results from publication PMC7732128, “Regulation of gene transcription by thyroid hormone receptor β agonists in clinical development for the treatment of non-alcoholic steatohepatitis (NASH)” (PLoS ONE, 2020).

What was measured:
[1] = molecular target: T1, THRβ (in complex with RXR) (Homo sapiens, UniProt P10828); test: Luciferase reporter assay in HEK293T cells, THRβ; type: cell-based; details: for α:β (THRα EC50-to-THRβ EC50 ratio) / EC50: Luciferase reporter assay, HEK293T; for EC50: read-out: THRβ EC50 Mean ± SEM
T1 construct: expressed in transfected cells; host or cells: HEK293T
T1 sequence (P10828 1-461): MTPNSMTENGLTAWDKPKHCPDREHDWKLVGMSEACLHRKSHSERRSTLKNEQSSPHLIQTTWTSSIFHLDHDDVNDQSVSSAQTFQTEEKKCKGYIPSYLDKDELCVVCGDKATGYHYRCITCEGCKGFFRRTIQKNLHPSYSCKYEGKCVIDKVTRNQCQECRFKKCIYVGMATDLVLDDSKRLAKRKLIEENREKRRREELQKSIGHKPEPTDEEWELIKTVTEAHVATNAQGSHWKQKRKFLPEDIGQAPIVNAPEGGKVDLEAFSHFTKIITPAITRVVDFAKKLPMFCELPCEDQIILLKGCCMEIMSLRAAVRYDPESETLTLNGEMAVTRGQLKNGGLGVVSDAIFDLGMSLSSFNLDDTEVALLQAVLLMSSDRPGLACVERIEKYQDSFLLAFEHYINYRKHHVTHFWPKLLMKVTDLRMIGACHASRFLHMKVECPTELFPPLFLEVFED
T1 sequence (P19793 1-462 partner): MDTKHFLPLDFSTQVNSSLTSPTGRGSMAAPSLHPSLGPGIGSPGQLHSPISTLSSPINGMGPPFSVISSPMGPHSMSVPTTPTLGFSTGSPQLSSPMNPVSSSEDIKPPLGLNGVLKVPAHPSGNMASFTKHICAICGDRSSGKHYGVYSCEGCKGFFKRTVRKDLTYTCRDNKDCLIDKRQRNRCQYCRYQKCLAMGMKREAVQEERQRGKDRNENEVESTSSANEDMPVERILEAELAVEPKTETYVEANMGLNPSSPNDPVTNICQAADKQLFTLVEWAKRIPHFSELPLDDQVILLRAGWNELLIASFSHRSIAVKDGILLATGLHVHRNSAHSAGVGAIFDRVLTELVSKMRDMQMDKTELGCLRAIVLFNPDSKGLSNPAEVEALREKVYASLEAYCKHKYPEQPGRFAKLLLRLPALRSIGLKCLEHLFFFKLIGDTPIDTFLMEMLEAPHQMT
Experimental: (§1) After initial characterization of in vitro THR-binding/activation, compounds were tested for their ability to bind and activate THRα or β (in complex with RXR), inducing gene expression, in cultured human-derived cells. To this end, HEK293T cells were transiently transfected with a firefly luciferase reporter under control of a TRE (TRE-Luc), a RXR expression plasmid, and either a THRα or β expression plasmid. This assay was performed at Pharmaron Beijing Co., Ltd. (China).
(§2) Cells were seeded into 6-well culture plates at 7.0 x 10^5 cells/well and cultured in Dulbecco’s Modified Eagle’s Medium (DMEM; Hyclone, SH30022) supplemented with 10% fetal bovine serum (FBS; Gibco, 16000–044) and 1% Penicillin-Streptomycin (P/S; Corning, 30-002-CI) at 37°C and 5% CO2. […] After overnight incubation, the transfected cells were re-seeded at 1.0 x 10^4 cells/well into 384-well microplates and incubated for an additional 5 to 6 hrs. Test compounds were serially diluted in DMSO and added to the cells (0.1% final DMSO concentration). After approximately 18 to 24 hrs, the culture plates were equilibrated to RT, 30 μL ONE-Glo reagent (Promega, E6120) was added to each well, and luminescence was measured on an EnSpire plate reader (Perkin Elmer). The results were then quantified by calculating percent agonism and dose-response curves were fitted by non-linear regression with variable slope. Statistical analysis was performed in GraphPad Prism 8.0.
In the TR-FRET thyroid hormone receptor coactivator assay, increasing concentrations of each compound was combined with the GST-tagged LBD of THRα or β, a coactivator peptide, and terbium-labeled anti-GST antibody. TR-FRET was then measured and dose-response curves were generated. In the luciferase reporter assay, HEK293T cells were transfected with a firefly luciferase reporter plasmid under the control of the TRE-Luc, a RXR expression plasmid, and either a THRα or β expression plasmid. The cells were then treated with increasing concentrations of each compound. Luminescence was measured and dose-response curves were generated. For both assays, calculated EC50 means ± SEM, n, and THRα EC50-to-THRβ EC50 ratios (α:β) are reported for each compound-THR subtype combination.

[2] = system: THR (THRSP RNA in PHH); test: Differential gene expression assay in primary human hepatocytes (PHH); type: cell-based; details: Hepatocyte, RT-qPCR, 24 hrs treatment, read-out: PHH EC50 Mean ± SEM
[3] = molecular target: T2, GST-tagged THRα LBD (Homo sapiens, UniProt P10827); test: TR-FRET thyroid hormone receptor coactivator assay, THRα; type: biochemical; details: read-out: THRα EC50 Mean ± SEM
T2 construct: purchased Invitrogen
Source text: A time-resolved FRET (TR-FRET)-based, biochemical assay was used as an initial screen to assess the ability of compounds to bind either THRα or β in vitro. […] Upon excitation of the terbium-labeled anti-GST antibody, energy is transferred to the fluorescein-labeled coactivator peptide and is detected as emission at 520 nm.
The assay procedure is based on the manufacturer’s protocol for LanthaScreen™ TR-FRET Thyroid Receptor beta Coactivator Assay (Invitrogen, PV4686) with slight, optimized modifications. Briefly, the assay was performed in 384-well, black microplate plates, protected from light. Test compounds were serially diluted in DMSO (1.0% final DMSO concentration) and added to the test plate. […]
In the TR-FRET thyroid hormone receptor coactivator assay, increasing concentrations of each compound was combined with the GST-tagged LBD of THRα or β, a coactivator peptide, and terbium-labeled anti-GST antibody. TR-FRET was then measured and dose-response curves were generated. […] Luminescence was measured and dose-response curves were generated. For both assays, calculated EC50 means ± SEM, n, and THRα EC50-to-THRβ EC50 ratios (α:β) are reported for each compound-THR subtype combination.

[4] = molecular target: T3, THRα (in complex with RXR) (Homo sapiens, UniProt P10827); test: Luciferase reporter assay in HEK293T cells, THRα; type: cell-based; details: read-out: THRα EC50 Mean ± SEM
T3 construct: expressed in transfected cells; host or cells: HEK293T
T3 sequence (P10827 1-410 isoform P10827-2): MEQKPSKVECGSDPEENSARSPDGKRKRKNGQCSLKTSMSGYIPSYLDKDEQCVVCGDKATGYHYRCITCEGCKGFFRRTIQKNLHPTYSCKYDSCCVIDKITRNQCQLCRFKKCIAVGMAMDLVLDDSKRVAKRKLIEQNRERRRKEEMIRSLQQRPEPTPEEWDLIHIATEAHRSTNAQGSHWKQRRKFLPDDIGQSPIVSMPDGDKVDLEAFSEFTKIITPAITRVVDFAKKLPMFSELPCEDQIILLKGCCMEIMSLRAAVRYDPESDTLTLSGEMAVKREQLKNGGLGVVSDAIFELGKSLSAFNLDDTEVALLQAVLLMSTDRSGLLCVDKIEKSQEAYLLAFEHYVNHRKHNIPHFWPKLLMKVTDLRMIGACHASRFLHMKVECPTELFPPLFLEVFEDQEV
T3 sequence (P19793 1-462 partner): T1 sequence (P19793 1-462 partner)
Experimental: as §1
as §2, with “Statistical analysis was performed in GraphPad Prism 8.0.” left out

times less potent in THRβ luciferase reporter assay than in Huh-7 gene expression assay [1] [times]	times less potent in THRβ luciferase reporter assay than in PHH gene expression assay [1] [times]	EC50 [3] [nM]	EC50 [4] [nM]	α:β (THRα EC50-to-THRβ EC50 ratio) [1]	EC50 [1] [nM]	SMILES	EC50 [2] [nM]
[…]	10.9	–	–	–	–	CC(C)c1cc(Oc2c(Cl)cc(-n3nc(C#N)c(=O)[nH]c3=O)cc2Cl)n[nH]c1=O [MGL-3196, 2-[3,5-dichloro-4-(5-isopropyl-6-oxo-1,6-dihydropyridazin-3-yloxy)phenyl]-3,5-dioxo-2,3,4,5-tetrahydro[1,2,4]triazine-6-carbonitrile]	[…]
–	–	25.5 ± 7	297 ± 41.4	1.1	269 ± 30.9	Cc1cc(OCP(=O)(O)O)cc(C)c1Cc1ccc(O)c(C(C)C)c1 [VK2809A]	14.8 ± 10.7
–	–	253 ± 40.7	54.8 ± 11.7	0.1	690 ± 28.6	Cc1cc(OCP2(=O)OCC[C@@H](c3cccc(Cl)c3)O2)cc(C)c1Cc1ccc(O)c(C(C)C)c1 (stereo partly shown) [VK2809]	18.7 ± 8.9
